Data as given in ChEMBL document CHEMBL1136837, “Unified QSAR approach to antimicrobials. 4. Multi-target QSAR modeling and comparative multi-distance study of the giant components of antiviral drug-drug complex networks” (Bioorg Med Chem, 2009).

What was measured:
Simplexvirus = assay: Antiviral activity against Herpes simplex virus; format: functional, organism-based
Picornaviridae = assay: Antiviral activity against Human picornavirus; format: functional, organism-based
Human alphaherpesvirus 3 = assay: Antiviral activity against Varicella zoster virus; format: functional, organism-based
Human alphaherpesvirus 2 = assay: Antiviral activity against Herpes simplex virus 2; format: functional, organism-based; conditions: Human alphaherpesvirus 2
Human alphaherpesvirus 1 = assay: Antiviral activity against Herpes simplex virus 1; format: functional, organism-based; conditions: Human alphaherpesvirus 1
Human betaherpesvirus 5 = assay: Antiviral activity against Human cytomegalovirus; format: functional, organism-based; conditions: Human betaherpesvirus 5
Human gammaherpesvirus 4 = assay: Antiviral activity against Epstein-Barr virus; format: functional, organism-based
Human gammaherpesvirus 8 = assay: Antiviral activity against Human herpesvirus 8; format: functional, organism-based
Influenza C virus = assay: Antiviral activity against Influenza C virus; format: functional, organism-based
Influenza A virus = assay: Antiviral activity against influenza H1N1 virus; format: functional, organism-based
H2N2 subtype = assay: Antiviral activity against influenza H2N2 virus; format: functional, organism-based; conditions: Influenza A virus
Influenza B virus = assay: Antiviral activity against influenza B virus; format: functional, organism-based
[1] = system: Human immunodeficiency virus 1; assay: Antiviral activity against HIV1; format: functional, organism-based
Hepatitis B virus = assay: Antiviral activity against Hepatitis B virus; format: functional, organism-based
Cowpox virus = assay: Antiviral activity against Cowpox virus; format: functional, organism-based
Vaccinia virus = assay: Antiviral activity against Vaccinia virus; format: functional, organism-based, Orthopoxvirus vaccinia; conditions: Orthopoxvirus vaccinia
Human adenovirus 2 = assay: Antiviral activity against Human adenovirus 2; format: functional, organism-based; conditions: Human mastadenovirus C
[2] = system: Moloney murine sarcoma virus; assay: Antiviral activity against Moloney sarcoma virus; format: functional, organism-based
Human rhinovirus sp. = assay: Antiviral activity against Human rhinovirus; format: functional, organism-based
Human betaherpesvirus 6 [3] = assay: Antiviral activity against Human herpesvirus 6A; format: functional, organism-based
Human betaherpesvirus 6 [4] = assay: Antiviral activity against Human herpesvirus 6B; format: functional, organism-based
Influenza A virus H3N2 = assay: Antiviral activity against influenza H3N2 virus; format: functional, organism-based, H3N2 subtype
Human respirovirus 1 = assay: Antiviral activity against Human parainfluenza virus 1; format: functional, organism-based

Question: For `Cc1ccc(Cn2c(N)c(C#N)c3c(N)ncnc32)cc1`, which IC50 (Simplexvirus) is on record?
Answer: The IC50 was 60 µM.

Question: With `Nc1nc2ccc(/C(=N/Nc3ccccc3)c3ccccc3)nn2c1-c1ccc(F)cc1` as the compound, how does the IC50 (Picornaviridae) read?
Answer: The IC50 was 10 µM.

Question: `Nc1ccn(/C=C2/CC2(CO)CO)c(=O)n1` was tested. Which IC50 (Human alphaherpesvirus 3) did it give?
Answer: Its IC50 is 448 µM.

Question: And the IC50 (Human alphaherpesvirus 2)?
Answer: The IC50 was 448 µM.

Question: And the IC50 (Human alphaherpesvirus 1)?
Answer: Its IC50 is 448 µM.

Question: And the IC50 (Human betaherpesvirus 5)?
Answer: Its IC50 is 14 µM.

Question: And the IC50 (Human gammaherpesvirus 4)?
Answer: Its IC50 is 45 µM.

Question: What about the IC50 (Human gammaherpesvirus 8) of the same compound?
Answer: The IC50 was 197 µM.

Question: `Nc1nc(N)c2ncn(/C=C3\CC3(CO)CO)c2n1` was tested. Which IC50 (Human alphaherpesvirus 3) did it give?
Answer: Its IC50 is 39 µM.

Question: What about the IC50 (Human alphaherpesvirus 2) of the same compound?
Answer: Its IC50 is 381 µM.

Question: What about the IC50 (Human alphaherpesvirus 1) of the same compound?
Answer: Its IC50 is 381 µM.

Question: And the IC50 (Human betaherpesvirus 5)?
Answer: Its IC50 is 3.3 µM.

Question: What about the IC50 (Human gammaherpesvirus 8) of the same compound?
Answer: Its IC50 is 165 µM.

Question: What does the source list for `Nc1ncnc2c1ncn2/C=C1/CC1(CO)CO`?
Answer: IC50 (Human alphaherpesvirus 3): 404 µM; IC50 (Human alphaherpesvirus 2): 404 µM; IC50 (Human alphaherpesvirus 1): 404 µM; IC50 (Human betaherpesvirus 5): 12 µM; IC50 (Human gammaherpesvirus 4): 166 µM; IC50 (Human gammaherpesvirus 8): 57 µM

Question: Which results are given for `NC(=O)c1nc(F)cnc1O`?
Answer: IC50 (Influenza C virus): 0.044 µM; IC50 (Influenza A virus): 0.16 µM; IC50 (H2N2 subtype): 0.048 µM; IC50 (Influenza B virus): 0.089 µM

Question: Which IC50 (Human alphaherpesvirus 3) does the source give for `Nc1nc2c(ncn2/C=C2\CC2(F)CO)c(=O)[nH]1` (configuration not stated) here?
Answer: The IC50 was 79.6 µM.

Question: And the IC50 [1]?
Answer: Its IC50 is 100 µM.

Question: What about the IC50 (Human gammaherpesvirus 4) of the same compound?
Answer: The IC50 was 20 µM.

Question: What about the IC50 (Hepatitis B virus) of the same compound?
Answer: The IC50 was 20 µM.

Question: Which results are given for `Nc1ncnc2c1ncn2C[C@@H](CO)OCP(=O)(O)O`?
Answer: IC50 (Cowpox virus): 5 µM; IC50 (Vaccinia virus): 3.5 µM; IC50 (Human adenovirus 2): 0.63 µM

Question: For `Nc1cc(OCCOCP(=O)(O)O)ncn1`, which IC50 (Human alphaherpesvirus 1) is on record?
Answer: The IC50 was 6.43 µM.

Question: And the IC50 [2]?
Answer: The IC50 was 5.22 µM.

Question: For `CCOC(=O)/C=C/[C@H](C[C@@H]1CCNC1=O)NC(=O)C1=Cc2ccccc2OC1`, which IC50 (Human rhinovirus sp.) is on record?
Answer: The IC50 was 1.19 µM.

Question: `CCOC(=O)/C=C/[C@H](C[C@@H]1CCNC1=O)NC(=O)C1=Cc2cc(Cl)ccc2OC1` was tested. Which IC50 (Human rhinovirus sp.) did it give?
Answer: Its IC50 is 0.16 µM.

Question: For `CCOC(=O)/C=C/[C@H](C[C@@H]1CCNC1=O)NC(=O)c1cc(-c2ccccc2)oc1C`, which IC50 (Human rhinovirus sp.) is on record?
Answer: Its IC50 is 1.94 µM.

Question: `CCOC(=O)/C=C/[C@H](C[C@@H]1CCNC1=O)NC(=O)[C@H](Cc1ccccc1)n1cccc(NC(=O)OCc2ccccc2)c1=O` was tested. Which IC50 (Human rhinovirus sp.) did it give?
Answer: Its IC50 is 0.003 µM.

Question: How did the IC50 (Human alphaherpesvirus 1) turn out when `Nc1nc(O)cc(NC2CC2)n1` was run?
Answer: Its IC50 is 0.00241 µM.

Question: And the IC50 [2]?
Answer: Its IC50 is 0.000801 µM.

Question: With `CCOC(=O)/C=C/[C@H](C[C@@H]1CCNC1=O)NC(=O)C1=Cc2cc(Br)ccc2OC1` as the compound, how does the IC50 (Human rhinovirus sp.) read?
Answer: Its IC50 is 0.18 µM.

Question: What does the source list for `Nc1nc2c(ncn2/C=C2\CC2(CO)CO)c(=O)[nH]1`?
Answer: IC50 (Human alphaherpesvirus 3): 380 µM; IC50 (Human betaherpesvirus 6 [3]): 116 µM; IC50 (Human betaherpesvirus 6 [4]): 43 µM; IC50 (Human alphaherpesvirus 2): 380 µM; IC50 (Human alphaherpesvirus 1): 380 µM; IC50 (Human betaherpesvirus 5): 123 µM; IC50 (Human gammaherpesvirus 4): 119 µM; IC50 (Human gammaherpesvirus 8): 190 µM

Question: `O=C(NCc1ccc(Cl)cc1)c1cnc2ccc(CCCO)cc2c1O` was tested. Which IC50 (Simplexvirus) did it give?
Answer: The IC50 was 11 µM.

Question: Which results are given for `Cc1cn(/C=C2/CC2(F)CO)c(=O)[nH]c1=O` (configuration not stated)?
Answer: IC50 (Human alphaherpesvirus 3): 0.62 µM; IC50 [1]: 100 µM; IC50 (Human gammaherpesvirus 4): 51.7 µM; IC50 (Hepatitis B virus): 20 µM

Question: Which IC50 (Picornaviridae) does the source give for `Nc1nc2ccc(/C(=N/O)c3ccccc3)nn2c1-c1ccccc1` here?
Answer: The IC50 was 0.04 µM.

Question: How did the IC50 (Human alphaherpesvirus 3) turn out when `Cc1cn(/C=C2\CC2(F)CO)c(=O)[nH]c1=O` (configuration not stated) was run?
Answer: Its IC50 is 442 µM.

Question: And the IC50 [1]?
Answer: Its IC50 is 100 µM.

Question: What about the IC50 (Human gammaherpesvirus 4) of the same compound?
Answer: Its IC50 is 20 µM.

Question: What about the IC50 (Hepatitis B virus) of the same compound?
Answer: Its IC50 is 20 µM.

Question: Which IC50 (Picornaviridae) does the source give for `Nc1nc2ccc(/C(=N/O)c3ccccc3)nn2c1-c1ccc(F)cc1` here?
Answer: The IC50 was 0.05 µM.

Question: `CCOC(=O)/C=C/[C@H](C[C@H]1CCNC1=O)NC(=O)[C@H](Cc1ccccc1)n1cccc(NC(=O)OCc2ccccc2)c1=O` was tested. Which IC50 (Human rhinovirus sp.) did it give?
Answer: The IC50 was 0.469 µM.

Question: For `CCOC(=O)/C=C/[C@H](CCC(N)=O)NC(=O)[C@H](Cc1ccccc1)n1cccc(NC(=O)c2cc(Cl)on2)c1=O`, which IC50 (Human rhinovirus sp.) is on record?
Answer: The IC50 was 0.24 µM.

Question: With `CCOC(=O)/C=C/[C@H](CCC(N)=O)NC(=O)[C@H](Cc1ccccc1)n1cccc(NC(=O)c2cc(C)on2)c1=O` as the compound, how does the IC50 (Human rhinovirus sp.) read?
Answer: Its IC50 is 0.016 µM.

Question: For `CCC(CC)C(NC(C)=O)C1C(NC(=N)N)CC(C(=O)O)C1O` (configuration not stated), which IC50 (Influenza A virus H3N2) is on record?
Answer: Its IC50 is 0.14 µM.

Question: How did the IC50 (Human respirovirus 1) turn out when `C/C=C\[C@@H]1C[C@H](C(=O)O)N[C@H]1[C@@H](NC(C)=O)[C@](C)(CCC)OC` was run?
Answer: Its IC50 is 14.1 µM.

Question: With `CNC(=O)/C=C(\c1ccc(C)cc1)c1ccc2nc(NCC(=O)NC)c(-c3ccc(F)cc3)n2n1` as the compound, how does the IC50 (Picornaviridae) read?
Answer: The IC50 was 0.23 µM.

Question: How did the IC50 (Simplexvirus) turn out when `N#Cc1cn([C@@H]2O[C@H](CO)[C@@H](O)[C@@H]2F)c2ncnc(N)c12` was run?
Answer: Its IC50 is 0.47 µM.

Question: What about the IC50 (Human betaherpesvirus 5) of the same compound?
Answer: The IC50 was 0.025 µM.

Question: How did the IC50 (Human alphaherpesvirus 3) turn out when `O=C(NCc1ccc(Cl)cc1)c1cnc2ccc(C#CCO)cc2c1O` was run?
Answer: Its IC50 is 0.68 µM.

Question: And the IC50 (Simplexvirus)?
Answer: Its IC50 is 20 µM.

Question: What does the source list for `OC[C@H]1O[C@@H](n2c(Br)nc3cc(Cl)c(Cl)cc32)[C@H](O)[C@@H]1O`?
Answer: IC50 (Human betaherpesvirus 6 [3]): 125 µM; IC50 (Human betaherpesvirus 6 [4]): 125 µM

Question: For `CNC(=O)/C=C(\c1ccccc1)c1ccc2nc(NCC(=O)NC)c(-c3ccc(F)cc3)n2n1`, which IC50 (Picornaviridae) is on record?
Answer: The IC50 was 0.11 µM.

Question: How did the IC50 (Simplexvirus) turn out when `CCCCCCCCCCCCCCCCOCCCOP1(=O)CO[C@@H](CN2CCC(N)=NC2=O)CO1` (some centres not stated) was run?
Answer: The IC50 was 0.04 µM.

Question: What about the IC50 (Human betaherpesvirus 5) of the same compound?
Answer: Its IC50 is 0.04 µM.

Question: And the IC50 (Vaccinia virus)?
Answer: The IC50 was 5.6 µM.

Question: With `CCC(CC)C(NC(C)=O)C1CC(C(=O)O)CC1NC(=N)N` (configuration not stated) as the compound, how does the IC50 (Influenza A virus) read?
Answer: The IC50 was 0.64 µM.

Question: How did the IC50 (Simplexvirus) turn out when `CCCCCCCCCCCCCCCCCCOCCOP(=O)(O)CO[C@H](CO)Cn1ccc(N)nc1=O` was run?
Answer: The IC50 was 0.001 µM.

Question: And the IC50 (Vaccinia virus)?
Answer: Its IC50 is 0.24 µM.
